Measurements taken from patent US8784782B2 (Senomyx, Inc., priority 2005, dated 2014).
Read-outs that look alike come from different tables or passages of the source.

Key:
[1] = target: T1, hT1R1/hT1R3 umami receptor expressed in an HEK293 cell line (Homo sapiens, UniProt Q7RTX0+Q7RTX1); test: In vitro hT1R1/hT1R3 umami taste receptor activation assay (FLIPR, dose response); format: cell-based
T1 construct: expressed in transfected cells; host or cells: HEK293 cell line derivative, hT1R1/hT1R3-HEK293-Gα15, clone I-17, mifepristone-induced
T1 sequence (Q7RTX1 21-841): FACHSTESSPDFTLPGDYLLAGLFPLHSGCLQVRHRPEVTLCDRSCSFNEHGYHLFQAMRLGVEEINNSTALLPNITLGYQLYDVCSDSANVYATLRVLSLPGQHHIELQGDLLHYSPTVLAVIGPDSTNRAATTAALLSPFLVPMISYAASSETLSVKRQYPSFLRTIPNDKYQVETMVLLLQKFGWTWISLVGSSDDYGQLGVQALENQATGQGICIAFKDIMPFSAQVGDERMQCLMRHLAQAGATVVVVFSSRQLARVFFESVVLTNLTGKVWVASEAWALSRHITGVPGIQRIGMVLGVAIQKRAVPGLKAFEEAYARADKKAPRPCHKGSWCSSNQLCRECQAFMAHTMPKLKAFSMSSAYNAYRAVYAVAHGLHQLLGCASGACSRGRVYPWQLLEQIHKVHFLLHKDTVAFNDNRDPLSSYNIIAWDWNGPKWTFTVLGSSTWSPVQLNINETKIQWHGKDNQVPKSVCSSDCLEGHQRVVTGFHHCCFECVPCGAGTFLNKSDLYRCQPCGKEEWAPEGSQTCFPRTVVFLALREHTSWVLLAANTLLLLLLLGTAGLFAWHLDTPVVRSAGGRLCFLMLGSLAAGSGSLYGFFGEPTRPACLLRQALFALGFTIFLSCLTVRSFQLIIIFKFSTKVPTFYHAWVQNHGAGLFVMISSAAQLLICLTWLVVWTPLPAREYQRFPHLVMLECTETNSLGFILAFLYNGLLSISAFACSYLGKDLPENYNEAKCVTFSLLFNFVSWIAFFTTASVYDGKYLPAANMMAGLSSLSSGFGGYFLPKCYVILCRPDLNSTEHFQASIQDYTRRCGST
T1 sequence (Q7RTX0 21-852): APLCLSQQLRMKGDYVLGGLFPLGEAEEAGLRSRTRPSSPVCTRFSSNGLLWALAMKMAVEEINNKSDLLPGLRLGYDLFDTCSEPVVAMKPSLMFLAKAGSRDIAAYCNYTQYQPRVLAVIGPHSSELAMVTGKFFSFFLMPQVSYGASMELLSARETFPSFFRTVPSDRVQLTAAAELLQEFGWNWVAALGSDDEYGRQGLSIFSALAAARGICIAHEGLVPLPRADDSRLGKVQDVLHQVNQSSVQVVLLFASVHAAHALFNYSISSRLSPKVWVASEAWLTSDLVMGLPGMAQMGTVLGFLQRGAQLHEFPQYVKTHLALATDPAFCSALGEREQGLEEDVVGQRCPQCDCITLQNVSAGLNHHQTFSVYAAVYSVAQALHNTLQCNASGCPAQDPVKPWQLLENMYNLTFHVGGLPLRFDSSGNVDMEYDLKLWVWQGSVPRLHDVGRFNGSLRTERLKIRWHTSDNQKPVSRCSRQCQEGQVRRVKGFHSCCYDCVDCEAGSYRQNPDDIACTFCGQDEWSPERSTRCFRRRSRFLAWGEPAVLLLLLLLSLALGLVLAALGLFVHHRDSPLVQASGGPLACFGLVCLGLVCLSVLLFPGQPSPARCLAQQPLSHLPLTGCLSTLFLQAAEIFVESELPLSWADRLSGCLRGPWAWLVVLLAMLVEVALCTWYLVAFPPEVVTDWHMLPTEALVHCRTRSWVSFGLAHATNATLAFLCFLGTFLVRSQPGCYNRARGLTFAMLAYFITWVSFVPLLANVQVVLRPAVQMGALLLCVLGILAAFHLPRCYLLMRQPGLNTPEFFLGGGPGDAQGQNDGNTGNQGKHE
Description: Activity was determined using an automated fluorometric imaging assay on a FLIPR instrument ([…], Molecular Devices, Sunnyvale, Calif.) (designated FLIPR assay). […] After replacement with 25 μl D-PBS, stimulation was performed in the FLIPR instrument and at room temperature by the addition of 25 μl D-PBS supplemented with different stimuli at concentrations corresponding to twice the desired final level. Receptor activity was quantified by determining the maximal fluorescence increases (using a 480 nm excitation and 535 nm emission) after normalization to basal fluorescence intensity measured before stimulation.
Activities were normalized to the response obtained with 60 mM monosodium glutamate, a concentration that elicits maximum receptor response.

[2] = target: T1, hT1R1/hT1R3 umami receptor expressed in an HEK293 cell line; test: Umami taste enhancement activity assay (EC50 ratio vs. MSG, FLIPR); format: cell-based; details: for Ec50 ratio (vs. MSG): Table A
Description: A series of measurements of the dose response is run in solutions comprising MSG alone, then a second dose response is run with MSG in combination with predetermined amounts of a candidate compound of Formula (I) at the same time.
Typical compound concentrations tested were 30 μM, 10 μM, 3 μM, 1 μM, 0.3 μM, 0.1 μM and 0.03 μM. The relative efficacy of compounds of Formula (I) at enhancing the receptor was determined by calculating the magnitude of a shift in the EC50 for monosodium glutamate. Enhancement was defined as a ratio (EC50R) corresponding to the EC50 of monosodium glutamate, determined in the absence of the test compound, divided by the EC50 of monosodium glutamate, determined in the presence of the test compound.
Stated alternatively, “EC50 ratio” as compared to MSG is calculated based on the following definitions: EC50 Ratio vs. MSG=EC50 (MSG)/EC50 (MSG+[Compound]) • wherein “[compound]” refers to the concentration of the compound of Formula (I) used to elicit (or enhance or potentiate) the MSG dose response.

[3] = Table A, triazoles, read-out: Umami EC50
[4] = read-out: EC50 for activation of a hT1R1/hT1R3 umami receptor expressed in an HEK293 cell line
[5] = Table B, pyridazines, read-out: Umami EC50

Structure (SMILES) | EC50 [1, 3] | Ec50 ratio (vs. MSG) ([2]; @ 0.3 μM compound) | EC50 [1, 4] | also measured
Cc1cc(-c2nc(SCCc3ccccn3)n[nH]2)oc1C [Example 8, 2-(2-(5-(4,5-dimethylfuran-2-yl)-1H-1,2,4-triazol-3-ylthio)ethyl)pyridine] |  |  | 1.87 µM | EC50 ratio (enhanced the effectiveness of monosodium glutamate) ([2]; compound present at 0.1 μM): 2.66
Cc1cc(-c2nc(SCc3ccccn3)n[nH]2)c(C)o1 [Example 7, 2-((5-(2,5-dimethylfuran-3-yl)-1H-1,2,4-triazol-3-ylthio)methyl)pyridine] |  |  | 2.07 µM | EC50 ratio (enhanced the effectiveness of monosodium glutamate) ([2]; compound present at 0.1 μM): 2.1
Cc1cc(-c2nc(SCc3ccccn3)n[nH]2)oc1C [Example 5, 2-((5-(4,5-dimethylfuran-2-yl)-1H-1,2,4-triazol-3-ylthio)methyl)pyridine] |  |  | 0.58 µM | EC50 ratio (enhanced the effectiveness of monosodium glutamate) ([2]; compound present at 0.1 μM): 4.4
COc1ccc(Cc2nc(SCc3ccccn3)n[nH]2)c(OC)c1 [Example 9, 2-((5-(2,4-dimethoxybenzyl)-1H-1,2,4-triazol-3-ylthio)methyl)pyridine] |  |  | 1.2 µM | EC50 ratio (enhanced the effectiveness of monosodium glutamate) ([2]; compound present at 0.1 μM): 2.66
CCc1ccc(-c2nc(SCc3ccccn3)n[nH]2)cc1 [Example 4, 2-((5-(4-Ethylphenyl)-1H-1,2,4-triazol-3-ylthio)methyl)pyridine] |  |  | 0.14 µM | EC50 ratio (enhanced the effectiveness of monosodium glutamate) ([2]; compound present at 0.03 μM): 4.4
c1ccc(CSc2n[nH]c(-c3cc4ccccc4o3)n2)nc1 [Example 6] |  |  | 2.58 µM | EC50 ratio (enhanced the effectiveness of monosodium glutamate) ([2]; compound present at 0.1 μM): 2.88
COc1cc(C)ccc1-c1nc(SCc2ccccn2)n[nH]1 [Example 1, 2-((5-(2-methoxy-4-methylphenyl)-1H-1,2,4-triazol-3-ylthio)methyl)pyridine] |  |  | 0.08 µM | EC50 ratio (enhanced the effectiveness of monosodium glutamate) ([2]; compound present at 0.03 μM): 5.9
Cc1ccc(-c2nnc(NCc3ccccn3)o2)c(C)c1 [Example 16, 5-(2,4-Dimethylphenyl)-N-(pyridin-2-ylmethyl)-1,3,4-oxadiazol-2-amine] |  |  | 10.3 µM | 
c1ccc(CSc2ccc(-c3ccc4c(c3)OCCO4)nn2)nc1 [Example B1, 3-(2,3-dihydrobenzo[b][1,4]dioxin-yl)-6-(pyridin-2-ylmethylthio)pyridazine] |  |  |  | EC50 [1, 5]: 0.6 µM
COc1ccc(-c2ccc(SCc3ccccn3)nn2)cc1OC [Example B2, 3-(3,4-dimethoxyphenyl)-6-(pyridin-2-ylmethylthio)pyridazine] |  |  |  | EC50 [1, 5]: 1.7 µM

Second part, led by results:

EC50 [1, 3] | Ec50 ratio (vs. MSG) ([2]; @ 0.3 μM compound) | EC50 [1, 4] | Structure (SMILES) | also measured
2.12 µM | 7.36 |  | COc1ccccc1-c1n[nH]c(SCc2ccccn2)n1 [Example A13, 2-((5-(2-methoxyphenyl)-2H-1,2,4-triazol-3-ylthio)methyl)pyridine] | 
4.08 µM | 2.13 |  | COc1ccc(-c2n[nH]c(SCc3ccccn3)n2)cc1OC [Example A18, 2-((5-(3,4-dimethoxyphenyl)-2H-1,2,4-triazol-3-ylthio)methyl)pyridine] | 
0.74 µM |  |  | CCOc1ccc(-c2n[nH]c(SCc3ccccn3)n2)cc1 [Example A7, 2-((5-(4-ethoxyphenyl)-2H-1,2,4-triazol-3-ylthio)methyl)pyridine] | Ec50 ratio (vs. MSG) ([2]; @ 0.03 μM compound): 2.33
1.18 µM | 6.01 |  | c1ccc(CSc2nc(-c3ccc4c(c3)OCO4)n[nH]2)nc1 [Example A10, 2-((5-(benzo[d][1,3]dioxol-5-yl)-2H-1,2,4-triazol-3-ylthio)methyl)pyridine] | 
7.37 µM | 4.84 |  | COc1cc(OC)cc(-c2n[nH]c(SCCc3ccccn3)n2)c1 [Example A20, 2-(2-(5-(3,5-dimethoxyphenyl)-2H-1,2,4-triazol-3-ylthio)ethyl)pyridine] | 
0.42 µM |  |  | CC(C)c1ccc(-c2n[nH]c(SCc3ccccn3)n2)cc1 [Example A5, 2-((5-(4-isopropylphenyl)-2H-1,2,4-triazol-3-ylthio)methyl)pyridine] | Ec50 ratio (vs. MSG) ([2]; @ 0.03 μM compound): 1.5
1.86 µM |  |  | Cc1ccccc1-c1n[nH]c(SCc2ccccn2)n1 [Example A12, 2-((5-o-tolyl-2H-1,2,4-triazol-3-ylthio)methyl)pyridine] | Ec50 ratio (vs. MSG) ([2]; @ 0.1 μM compound): 1.97
0.24 µM | 2.01 |  | COc1ccc(-c2n[nH]c(SCc3ccccn3)n2)c(C)c1 [Example A3, 2-((5-(4-methoxy-2-methylphenyl)-2H-1,2,4-triazol-3-ylthio)methyl)pyridine] | 
2.89 µM | 3.02 |  | c1ccc(-c2n[nH]c(SCc3ccccn3)n2)cc1 [Example A17, 2-((5-phenyl-2H-1,2,4-triazol-3-ylthio)methyl)pyridine] | 
2.58 µM | 3.16 |  | COc1cc(OC)cc(-c2n[nH]c(SCc3ccccn3)n2)c1 [Example A16, 2-((5-(3,5-dimethoxyphenyl)-2H-1,2,4-triazol-3-ylthio)methyl)pyridine] | 
6.49 µM | 2.01 |  | CCOc1ccccc1-c1n[nH]c(SCc2ccccn2)n1 [Example A19, 2-((5-(2-ethoxyphenyl)-2H-1,2,4-triazol-3-ylthio)methyl)pyridine] | 
0.17 µM |  |  | Cc1ccc(-c2n[nH]c(SCc3ccccn3)n2)cc1 [Example A1, 2-((5-p-tolyl-2H-1,2,4-triazol-3-ylthio)methyl)pyridine] | Ec50 ratio (vs. MSG) ([2]; @ 0.01 μM compound): 2.19
2.54 µM |  |  | Clc1cccc(-c2n[nH]c(SCc3ccccn3)n2)c1 [Example A15, 2-((5-(3-chlorophenyl)-2H-1,2,4-triazol-3-ylthio)methyl)pyridine] | Ec50 ratio (vs. MSG) ([2]; @ 0.1 μM compound): 2
0.37 µM |  |  | COc1ccc(-c2n[nH]c(SCc3ccccn3)n2)c(OC)c1 [Example A4, 2-((5-(2,4-dimethoxyphenyl)-2H-1,2,4-triazol-3-ylthio)methyl)pyridine] | Ec50 ratio (vs. MSG) ([2]; @ 0.1 μM compound): 6.22
0.94 µM |  |  | Cc1cccc(-c2n[nH]c(SCc3ccccn3)n2)c1 [Example A8, 2-((5-m-tolyl-2H-1,2,4-triazol-3-ylthio)methyl)pyridine] | 
0.52 µM |  |  | COc1ccc(-c2n[nH]c(SCc3ccccn3)n2)cc1 [Example A6, 2-((5-(4-methoxyphenyl)-2H-1,2,4-triazol-3-ylthio)methyl)pyridine] | 
